Data published in ChEMBL document CHEMBL1122428, “Folate analogues. 20. Synthesis and antifolate activity of 1',2',3',4',5',6'-hexahydrohomofolic acid” (J Med Chem, 1983).

Assays:
Enterococcus faecium [1] = assay: Evaluated for the bacterial growth inhibition and the concentration required for 50% inhibition against Streptococcus faecium ATCC 8043 strain; assay type: functional, organism-based
Enterococcus faecium [2] = assay: Evaluated for the bacterial growth inhibition and the concentration required for 50% inhibition against Streptococcus faecium (MTX resistant); assay type: functional, organism-based

SMILES	Concentration (Enterococcus faecium [1]) [ng/mL]	Concentration (Enterococcus faecium [2]) [ng/mL]
Nc1nc(O)c2nc(CCN[C@H]3CC[C@@H](C(=O)NC(CCC(=O)O)C(=O)O)CC3)cnc2n1 (some centres not stated)	2000	> 2000
Nc1nc(O)c2c(n1)NCC(CCN[C@H]1CC[C@@H](C(=O)NC(CCC(=O)O)C(=O)O)CC1)N2 (some centres not stated)	38	> 2000
Nc1nc(O)c2c(n1)NCC(CCNC1CCC(C(=O)O)CC1)=N2 (configuration not stated)	130	> 2000
Nc1nc(O)c2c(n1)NCC(CCNC1CCC(C(=O)O)CC1)N2 (configuration not stated)	260	> 2000
Nc1nc(O)c2nc(CCNC3CCC(C(=O)O)CC3)cnc2n1 (configuration not stated)	> 2000	> 2000
Nc1nc(O)c2c(n1)NCC(CCN[C@H]1CC[C@@H](C(=O)NC(CCC(=O)O)C(=O)O)CC1)=N2 (some centres not stated)	30	> 2000
